Assay results as given in PMC4556830, “The Effect of MGCD0103 on CYP450 Isoforms Activity of Rats by Cocktail Method” (BioMed Research International, 2015).

Assay: Pharmacokinetics of six cocktail probe drugs in rat plasma (UPLC-MS/MS) after 7-day MGCD0103 or saline
Settings: for Cmax / half-life: Sprague-Dawley, rat, po; for Cmax: C max; for difference for AUC, t 1/2 between high dosage group and control group: p > 0.05
Procedure: The compounds were analyzed by a UPLC-MS/MS with ACQUITY I-Class UPLC and a XEVO TQD triple quadrupole mass spectrometer that was equipped with an electrospray ionization (ESI) interface (Waters Corp., Milford, MA, USA). The UPLC system included a Sample Manager with Flow-Through Needle (SM-FTN) and a Binary Solvent Manager (BSM). Data acquisition and instrument control were performed on the MassLynx 4.1 software (Waters Corp., Milford, MA, USA).
The initial mobile phase consisted of 0.1% formic acid and acetonitrile with gradient elution at a flow rate of 0.4 mL/min and an injection volume of 2 μL. […] The total run time of the analysis was 3 min.
The mass spectrometric detection was performed in a positive mode. Nitrogen was used as the cone gas (50 L/h) and desolvation gas (1000 L/h). The mass conditions were set as follows: source temperature 150°C, capillary voltage 2.5 kV, and desolvation temperature 500°C.
Forty rats (220 ± 20 g) were randomly divided into four different dosages of MGCD0103 groups (Low group, Medium group, High group, and control group with 10 rats in each group). MGCD0103 was dissolved in corn oil as suspension at three different concentrations (20, 40, and 80 mg/mL). Three different MGCD0103 groups (Low group, Medium group, and High group) were respectively given MGCD0103 20, 40, and 80 mg/kg one time by intragastric administration at every morning and last for 7 days. Control group were given saline by same administration method.
100 μL of plasma was obtained from blood sample after centrifugation at 4000 g for 10 min. In a 1.5 mL centrifuge tube, 200 μL of acetonitrile (containing 50 ng/mL IS) was added into 100 μL of collected plasma sample. […] Then supernatant (2 μL) was injected into the UPLC-MS/MS system for analysis.
Concentration of plasma probe drugs versus time was analyzed by Version 3.0 Data Analysis System (Wenzhou Medical University, China). The main pharmacokinetic parameters of the MGCD0103 group and control group were analyzed by SPSS l8.0 statistical software.

[1] = Control group: saline i.g. 7 days (no MGCD0103), then probe 10 mg/kg (tolbutamide 1 mg/kg) i.g., rat plasma, mean ± SD, n = 10
[2] = High group: MGCD0103 80 mg/kg i.g. 7 days, then probe 10 mg/kg (tolbutamide 1 mg/kg) i.g., rat plasma, mean ± SD, n = 10
[3] = Low group: MGCD0103 20 mg/kg i.g. 7 days, then probe 10 mg/kg (tolbutamide 1 mg/kg) i.g., rat plasma, mean ± SD, n = 10
[4] = Medium group: MGCD0103 40 mg/kg i.g. 7 days, then probe 10 mg/kg (tolbutamide 1 mg/kg) i.g., rat plasma, mean ± SD, n = 10
[5] = high dosage MGCD0103 group vs control
[6] = high dosage MGCD0103 group vs control, p < 0.05

SMILES	AUC(0–t) [1]	AUC(0–∞) [1]	AUC(0–t) [2]	AUC(0–∞) [2]	AUC(0–t) [3]	AUC(0–∞) [3]	AUC(0–t) [4]	AUC(0–∞) [4]	Cmax (in vivo, 10 mg/kg)	half-life (in vivo, 10 mg/kg, t 1/2)	difference for AUC, t 1/2 between high dosage group and control group [5]	half-life (in vivo, t 1/2)	CL [1]	CL [2]	CL [3]	CL [4]	V [1]	V [2]	V [3]	V [4]	other results
CC(NC(C)(C)C)C(=O)c1cccc(Cl)c1 (stereo not shown) [Bupropion]	144.8 ± 94.1 ng/mL∗h	146.7 ± 95.1 ng/mL∗h	218.2 ± 460.8 ng/mL∗h	235.2 ± 502.8 ng/mL∗h	282.5 ± 403.2 ng/mL∗h	324.2 ± 506.3 ng/mL∗h	120.4 ± 45.1 ng/mL∗h	122.3 ± 45.2 ng/mL∗h	157 ± 179 ng/mL	0.8 ± 0.4 h	no significant difference										
COCCc1ccc(OCC(O)CNC(C)C)cc1 (stereo not shown) [Metoprolol]	709.2 ± 255.8 ng/mL∗h	724.2 ± 255.8 ng/mL∗h	1031.8 ± 1261.2 ng/mL∗h	1046.4 ± 1258.4 ng/mL∗h	698.1 ± 348.6 ng/mL∗h	703.8 ± 351.6 ng/mL∗h	836.1 ± 499.8 ng/mL∗h	843.7 ± 498.4 ng/mL∗h			no significant difference	0.8 ± 0.1 h									
COc1ccc2[nH]c([S+]([O-])Cc3ncc(C)c(OC)c3C)nc2c1 (stereo not shown) [Omeprazole]	503.8 ± 199.4 ng/mL∗h	528.0 ± 190.0 ng/mL∗h	676.8 ± 1111.6 ng/mL∗h	731.8 ± 1098.8 ng/mL∗h	700.1 ± 910.2 ng/mL∗h	704.9 ± 909.5 ng/mL∗h	526.1 ± 251.2 ng/mL∗h	539.1 ± 252.5 ng/mL∗h	556 ± 646 ng/mL		no significant difference		21.2 ± 7.6 L/h/kg	31.8 ± 19.0 L/h/kg	29.1 ± 16.6 L/h/kg	22.3 ± 10.0 L/h/kg					half-life (plasma, 10 mg/kg, t 1/2, Control group: saline i.g. 7 days (no MGCD0103), then probe 10 mg/kg (tolbutamide 1 mg/kg) i.g., rat plasma, mean ± SD, n = 10): 1.4 ± 1 h
CCOc1ccc(NC(C)=O)cc1 [Phenacetin]	3831.2 ± 2840.9 ng/mL∗h	3833.6 ± 2839.3 ng/mL∗h	2869.8 ± 3189.9 ng/mL∗h	2871.9 ± 3189.0 ng/mL∗h	2973.6 ± 1807.0 ng/mL∗h	2975.9 ± 1806.6 ng/mL∗h	2910.1 ± 1758.5 ng/mL∗h	2918.2 ± 1751.4 ng/mL∗h	2880 ± 1630 ng/mL	0.6 ± 0.4 h	no significant difference										
C[C@]12CC[C@H]3[C@@H](CCC4=CC(=O)CC[C@@]43C)[C@@H]1CC[C@@H]2O [Testosterone]	85.9 ± 40.6 ng/mL∗h	89.9 ± 43.9 ng/mL∗h	490.7 ± 1044.2 ng/mL∗h	524.5 ± 1042.4 ng/mL∗h	404.5 ± 908.2 ng/mL∗h	417.2 ± 927.8 ng/mL∗h	81.3 ± 28.8 ng/mL∗h	106.5 ± 45.1 ng/mL∗h			no significant difference		143.8 ± 89.6 L/h/kg	64.9 ± 33.4^∗ L/h/kg	104.8 ± 49.0 L/h/kg	109.0 ± 43.8 L/h/kg	161.1 ± 82.2 L/kg	254.0 ± 291.0 L/kg	259.1 ± 168.6 L/kg	253.2 ± 204.3 L/kg	Cmax (in vivo, 10 mg/kg, Control group: saline i.g. 7 days (no MGCD0103), then probe 10 mg/kg (tolbutamide 1 mg/kg) i.g., rat plasma, mean ± SD, n = 10): 88.1 ± 54.2 ng/mL; Cmax (in vivo, 10 mg/kg, High group: MGCD0103 80 mg/kg i.g. 7 days, then probe 10 mg/kg (tolbutamide 1 mg/kg) i.g., rat plasma, mean ± SD, n = 10): 462 ± 1030 ng/mL; Cmax (in vivo, 10 mg/kg, Low group: MGCD0103 20 mg/kg i.g. 7 days, then probe 10 mg/kg (tolbutamide 1 mg/kg) i.g., rat plasma, mean ± SD, n = 10): 302 ± 631 ng/mL; Cmax (in vivo, 10 mg/kg, Medium group: MGCD0103 40 mg/kg i.g. 7 days, then probe 10 mg/kg (tolbutamide 1 mg/kg) i.g., rat plasma, mean ± SD, n = 10): 93.2 ± 75.3 ng/mL; half-life (in vivo, 10 mg/kg, t 1/2, Control group: saline i.g. 7 days (no MGCD0103), then probe 10 mg/kg (tolbutamide 1 mg/kg) i.g., rat plasma, mean ± SD, n = 10): 1 ± 0.6 h; half-life (in vivo, 10 mg/kg, t 1/2, High group: MGCD0103 80 mg/kg i.g. 7 days, then probe 10 mg/kg (tolbutamide 1 mg/kg) i.g., rat plasma, mean ± SD, n = 10): 4 ± 7.1 h; half-life (in vivo, 10 mg/kg, t 1/2, Low group: MGCD0103 20 mg/kg i.g. 7 days, then probe 10 mg/kg (tolbutamide 1 mg/kg) i.g., rat plasma, mean ± SD, n = 10): 1.7 ± 0.8 h; half-life (in vivo, 10 mg/kg, t 1/2, Medium group: MGCD0103 40 mg/kg i.g. 7 days, then probe 10 mg/kg (tolbutamide 1 mg/kg) i.g., rat plasma, mean ± SD, n = 10): 2.2 ± 2.4 h; change of CL versus control group [6]: shortened
CCCCNC(=O)NS(=O)(=O)c1ccc(C)cc1 [Tolbutamide]	88701.2 ± 19274.8 ng/mL∗h	89852.0 ± 19168.1 ng/mL∗h	64052.9 ± 15988.6^∗ ng/mL∗h	64353.2 ± 15998.9^∗ ng/mL∗h	82724.8 ± 13265.9 ng/mL∗h	83176.9 ± 13264.2 ng/mL∗h	72448.6 ± 14850.4 ng/mL∗h	72761.4 ± 14754.7 ng/mL∗h				5.2 ± 1.2 h					0.088 ± 0.019 L/kg	0.099 ± 0.020 L/kg	0.090 ± 0.014 L/kg	0.093 ± 0.010 L/kg	change of AUC(0–t) versus control group [6]: decreased; change of CL versus control group [6]: increased
